Experimental data taken from patent US8299077B2 (Roche Palo Alto LLC, priority 2009, dated 2012).

Tested on: B cell receptor-mediated activation of B cells in human blood (CD69 expression)
Test: Inhibition of B cell activation in whole blood measured by CD69 expression
Assay type: cell-based
Conditions: anti-IgM stimulation, 20 h, 50% decrease of CD69-positive cells that are also CD20-positive
Protocol: Inhibition of B Cell Activation in Whole Blood Measured by CD69 Expression
A procedure to test the ability of Btk inhibitors to suppress B cell receptor-mediated activation of B cells in human blood is as follows:
Human whole blood (HWB) is obtained from healthy volunteers, with the following restrictions: 24 hr drug-free, non-smokers. Blood is collected by venipuncture into Vacutainer tubes anticoagulated with sodium heparin. Test compounds are diluted to ten times the desired starting drug concentration in PBS (20×), followed by three-fold serial dilutions in 10% DMSO in PBS to produce a nine point dose-response curve. 5.5 μl of each compound dilution is added in duplicate to a 2 ml 96-well V bottom plate (Analytical Sales and Services, #59623-23); 5.5 μl of 10% DMSO in PBS is added to control and no-stimulus wells. HWB (100 μl) is added to each well, and after mixing the plates are incubated at 37 C, 5% CO2, 100% humidity for 30 minutes. Goat F(ab′)2 anti-human IgM (Southern Biotech, #2022-14) (10 μl of a 500 μg/ml solution, 50 μg/ml final concentration) is added to each well (except the no-stimulus wells) with mixing and the plates are incubated for an additional 20 hours.
At the end of the 20 hour incubation, samples are incubated with florescent-probe-labeled anti-bodies (15 μl PE Mouse anti-Human CD20, BD Pharmingen, #555623, and/or 20 ul APC Mouse anti-Human CD69, BD Pharmingen #555533) for 30 minutes, at 37 C, 5% CO2, 100% humidity. Included are induced control, unstained and single stains for compensation adjustments and initial voltage settings. Samples are then lysed with 1 ml of 1× Pharmingen Lyse Buffer (BD Pharmingen #555899), and plates are centrifuged at 1800 rpm for 5 minutes. Supernatants are removed via suction and the remaining pellets are lysed again with another 1 ml of 1× Pharmingen Lyse Buffer, and plates are spun down as before. Supernatants are aspirated and remaining pellets are washed in FACs buffer (PBS+1% FBS). After a final spin, the supernantants are removed and pellets are resuspended in 180 μl of FACs buffer. Samples are transferred to a 96 well plate suitable to be run on the HTS 96 well system on the BD LSR II flow cytometer.
Using appropriate excitation and emission wavelengths for the fluorophores used, data are acquired and percent positive cell values are obtained using Cell Quest Software. Results are initially analyzed by FACS analysis software (Flow Jo). […] The IC50 values are calculated using XLfit software version 3, equation 201.

Structure (SMILES)	IC50 [nM]
Cn1cc(-c2cccc(-n3ccc4cc(C5CC5)cc(F)c4c3=O)c2CO)cc(Nc2ccc(N3CCC(C)(O)CC3)cn2)c1=O [Example I-57, 6-Cyclopropyl-8-fluoro-2-{2-hydroxymethyl-3-[5-(4-hydroxy-4-methyl-3,4,5,6-tetrahydro-2H-[1,3′]bipyridinyl-6′-ylamino)-1-methyl-6-oxo-1,6-dihydro-pyridin-3-yl]-phenyl}-2H-isoquinolin-1-one]	18
CN1CCN(c2ccc(Nc3cc(-c4cccc(-n5ccc6cc(C(C)(C)O)cc(F)c6c5=O)c4CO)cn(C)c3=O)nc2)CC1 [Example I-59, 8-Fluoro-6-(1-hydroxy-1-methyl-ethyl)-2-(2-hydroxymethyl-3-{1-methyl-5-[5-(4-methyl-piperazin-1-yl)-pyridin-2-ylamino]-6-oxo-1,6-dihydro-pyridin-3-yl}-phenyl)-2H-isoquinolin-1-one]	3
Cn1cc(-c2cccc(-n3ccc4cc(C5(C)CC5)cc(F)c4c3=O)c2CO)cc(Nc2ccc(C(=O)N3CCOCC3)cn2)c1=O [Example I-60, 8-Fluoro-2-(2-hydroxymethyl-3-{1-methyl-5-[5-(morpholine-4-carbonyl)-pyridin-2-ylamino]-6-oxo-1,6-dihydro-pyridin-3-yl}-phenyl)-6-(1-methyl-cyclopropyl)-2H-isoquinolin-1-one]	16
Cn1cc(-c2cccc(-n3ccc4cc(C5CC5)cc(F)c4c3=O)c2CO)cc(Nc2ccc(S(C)(=O)=O)cn2)c1=O [Example I-62, 6-Cyclopropyl-8-fluoro-2-{2-hydroxymethyl-3-[5-(5-methanesulfonyl-pyridin-2-ylamino)-1-methyl-6-oxo-1,6-dihydro-pyridin-3-yl]-phenyl}-2H-isoquinolin-1-one]	92
CCC(O)(CC)c1cc(F)c2c(=O)n(-c3cccc(-c4cc(Nc5ccc(N6CCC(C)(O)CC6)cn5)c(=O)n(C)c4)c3CO)ccc2c1 [Example I-64, 6-(1-Ethyl-1-hydroxy-propyl)-8-fluoro-2-{2-hydroxymethyl-3-[5-(4-hydroxy-4-methyl-3,4,5,6-tetrahydro-2H-[1,3′]bipyridinyl-6′-ylamino)-1-methyl-6-oxo-1,6-dihydro-pyridin-3-yl]-phenyl}-2H-isoquinolin-1-one]	27
Cn1cc(-c2cccc(-n3ccc4cc(C(C)(C)C#N)cc(F)c4c3=O)c2CO)cc(Nc2ccc(OCCO)cn2)c1=O [Example I-65, 2-[8-Fluoro-2-(3-{5-[5-(2-hydroxy-ethoxy)-pyridin-2-ylamino]-1-methyl-6-oxo-1,6-dihydro-pyridin-3-yl}-2-hydroxymethyl-phenyl)-1-oxo-1,2-dihydro-isoquinolin-6-yl]-2-methyl-propionitrile]	19
Cn1cc(-c2cccc(-n3ccc4cc(C5CC5)cc(F)c4c3=O)c2CO)cc(Nc2ccc(C(C)(C)C(=O)O)cn2)c1=O [Example I-68, 2-(6-{5-[3-(6-Cyclopropyl-8-fluoro-1-oxo-1H-isoquinolin-2-yl)-2-hydroxymethyl-phenyl]-1-methyl-2-oxo-1,2-dihydro-pyridin-3-ylamino}-pyridin-3-yl)-2-methyl-propionic acid]	213
CNC(=O)C(C)(C)c1ccc(Nc2cc(-c3cccc(-n4ccc5cc(C6CC6)cc(F)c5c4=O)c3CO)cn(C)c2=O)nc1 [Example I-69, 2-(6-{5-[3-(6-Cyclopropyl-8-fluoro-1-oxo-1H-isoquinolin-2-yl)-2-hydroxymethyl-phenyl]-1-methyl-2-oxo-1,2-dihydro-pyridin-3-ylamino}-pyridin-3-yl)-N-methyl-isobutyramide]	33
CN(C)C(=O)C(C)(C)c1ccc(Nc2cc(-c3cccc(-n4ccc5cc(C6CC6)cc(F)c5c4=O)c3CO)cn(C)c2=O)nc1 [Example I-70, 2-(6-{5-[3-(6-Cyclopropyl-8-fluoro-1-oxo-1H-isoquinolin-2-yl)-2-hydroxymethyl-phenyl]-1-methyl-2-oxo-1,2-dihydro-pyridin-3-ylamino}-pyridin-3-yl)-N,N-dimethyl-isobutyramide]	22
Cn1cc(-c2cccc(-n3ccc4cc(C5CC5)cc(F)c4c3=O)c2CO)cc(Nc2ccc(C(C)(C)O)cn2)c1=O [Example I-72, 6-Cyclopropyl-8-fluoro-2-(2-hydroxymethyl-3-{5-[5-(1-hydroxy-1-methyl-ethyl)-pyridin-2-ylamino]-1-methyl-6-oxo-1,6-dihydro-pyridin-3-yl}-phenyl)-2H-isoquinolin-1-one]	20
CC(O)c1ccc(Nc2cc(-c3cccc(-n4ccc5cc(C6CC6)cc(F)c5c4=O)c3CO)cn(C)c2=O)nc1 (centres unmarked) [Example I-74, 6-Cyclopropyl-8-fluoro-2-(3-{5-[5-(1-hydroxy-ethyl)-pyridin-2-ylamino]-1-methyl-6-oxo-1,6-dihydro-pyridin-3-yl}-2-hydroxymethyl-phenyl)-2H-isoquinolin-1-one]	29
COCCNCc1ccc(Nc2cc(-c3cccc(-n4ccc5cc(C6CC6)cc(F)c5c4=O)c3CO)cn(C)c2=O)nc1 [Example I-75, 6-Cyclopropyl-8-fluoro-2-[2-hydroxymethyl-3-(5-{5-[(2-methoxy-ethylamino)-methyl]-pyridin-2-ylamino}-1-methyl-6-oxo-1,6-dihydro-pyridin-3-yl)-phenyl]-2H-isoquinolin-1-one]	37
Cn1cc(-c2cccc(-n3ccc4cc(C5CC5)cc(F)c4c3=O)c2CO)cc(Nc2ccc(C(C)(C)N)cn2)c1=O [Example I-76, 2-(3-{5-[5-(1-Amino-1-methyl-ethyl)-pyridin-2-ylamino]-1-methyl-6-oxo-1,6-dihydro-pyridin-3-yl}-2-hydroxymethyl-phenyl)-6-cyclopropyl-8-fluoro-2H-isoquinolin-1-one]	40

The remaining lines, values ahead:

IC50 [nM]	Structure (SMILES)
16	CN1CCN(c2ccc(Nc3cc(-c4cccc(-n5ccc6cc(C7(C)CC7)cc(F)c6c5=O)c4CO)cn(C)c3=O)nc2)CC1 [Example I-55, 8-Fluoro-2-(2-hydroxymethyl-3-{1-methyl-5-[5-(4-methyl-piperazin-1-yl)-pyridin-2-ylamino]-6-oxo-1,6-dihydro-pyridin-3-yl}-phenyl)-6-(1-methyl-cyclopropyl)-2H-isoquinolin-1-one]
6	Cn1cc(-c2cccc(-n3ccc4cc(C(C)(C)O)cc(F)c4c3=O)c2CO)cc(Nc2ccc(N3CCC(C)(O)CC3)cn2)c1=O [Example I-58, 8-Fluoro-6-(1-hydroxy-1-methyl-ethyl)-2-{2-hydroxymethyl-3-[5-(4-hydroxy-4-methyl-3,4,5,6-tetrahydro-2H-[1,3′]bipyridinyl-6′-ylamino)-1-methyl-6-oxo-1,6-dihydro-pyridin-3-yl]-phenyl}-2H-isoquinolin-1-one]
51	Cn1cc(-c2cccc(-n3ccc4cc(C5(C)CC5)cc(F)c4c3=O)c2CO)cc(Nc2ccc(S(C)(=O)=O)cn2)c1=O [Example I-61, 8-Fluoro-2-{2-hydroxymethyl-3-[5-(5-methanesulfonyl-pyridin-2-ylamino)-1-methyl-6-oxo-1,6-dihydro-pyridin-3-yl]-phenyl}-6-(1-methyl-cyclopropyl)-2H-isoquinolin-1-one]
16	Cn1cc(-c2cccc(-n3ccc4cc(C(C)(C)C)cc(F)c4c3=O)c2CO)cc(Nc2ccc(C(=O)N3CCOCC3)cn2)c1=O [Example I-63, 6-tert-Butyl-8-fluoro-2-(2-hydroxymethyl-3-{1-methyl-5-[5-(morpholine-4-carbonyl)-pyridin-2-ylamino]-6-oxo-1,6-dihydro-pyridin-3-yl}-phenyl)-2H-isoquinolin-1-one]
39	CN1CC(Oc2ccc(Nc3cc(-c4cccc(-n5ccc6cc(C7CC7)cc(F)c6c5=O)c4CO)cn(C)c3=O)nc2)C1 [Example I-71, 6-Cyclopropyl-8-fluoro-2-(2-hydroxymethyl-3-{1-methyl-5-[5-(1-methyl-azetidin-3-yloxy)-pyridin-2-ylamino]-6-oxo-1,6-dihydro-pyridin-3-yl}-phenyl)-2H-isoquinolin-1-one]
24	CN1CCN(Cc2ccc(Nc3cc(-c4cccc(-n5ccc6cc(C7CC7)cc(F)c6c5=O)c4CO)cn(C)c3=O)nc2)CC1 [Example I-73, 6-Cyclopropyl-8-fluoro-2-(2-hydroxymethyl-3-{1-methyl-5-[5-(4-methyl-piperazin-1-ylmethyl)-pyridin-2-ylamino]-6-oxo-1,6-dihydro-pyridin-3-yl}-phenyl)-2H-isoquinolin-1-one]
20	CCNCc1ccc(Nc2cc(-c3cccc(-n4ccc5cc(C6CC6)cc(F)c5c4=O)c3CO)cn(C)c2=O)nc1 [Example I-77, 6-Cyclopropyl-2-{3-[5-(5-ethylaminomethyl-pyridin-2-ylamino)-1-methyl-6-oxo-1,6-dihydro-pyridin-3-yl]-2-hydroxymethyl-phenyl}-8-fluoro-2H-isoquinolin-1-one]
